Values quoted from earlier work, collected in US20200392379A1, “TRANSFER FILM, METHOD FOR MANUFACTURING LAMINATE, LAMINATE, CAPACITIVE INPUT DEVICE, AND IMAGE DISPLAY DEVICE” (FUJIFILM Corporation, priority 2018, published 2020).

| Structure (SMILES) | pKa of conjugate acid |
| --- | --- |
| c1ccc2[nH]nnc2c1 [1,2,3-Benzotriazole] | 1.17 |
| Sc1nnc(S)s1 [1,3,4-Thiadiazole-2,5-dithiol] | −2.11 |
| O=C(O)CC(C(=O)O)n1nnc2ccccc21 (centres unmarked) [1-(1′,2′-Dicarboxyethyl)benzotriazole] | 0.09 |
| O=C(O)CC(Cn1nnc2ccccc21)C(=O)O (centres unmarked) [1-(2,3-Dicarboxypropyl)benzotriazole] | 1.21 |
| Cn1nnnc1S [1-Methyl-5-mercaptotetrazole] | −2.98 |
| CCCCC(CC)CN(CC(CC)CCCC)Cn1nnc2ccccc21 (centres unmarked) [1-[N,N-bis(2-ethylhexyl)aminomethyl]benzotriazole] | 6.68 |
| Cc1cc(Cn2nnc3ccccc32)c(O)c(Cn2nnc3ccccc32)c1 [2,6-Bis[(1H-benzotriazol-1-yl)methyl]-4-methylphenol] | 1.49 |
| CSc1nnc(N)s1 [2-Amino-5-methylthio-1,3,4-thiadiazole] | 2.12 |
| Sc1nncs1 [2-Mercapto-1,3,4-thiadiazole] | −1.09 |
| CSc1nnc(S)s1 [2-Mercapto-5-methylthio-1,3,4-thiadiazole] | −1.32 |
| Sc1nc2ccccc2[nH]1 [2-Mercaptobenzimidazole] | 2.38 |
| Cc1ncc[nH]1 [2-Methylimidazole] | 8.15 |
| CSc1nc(N)n[nH]1 [3-Amino-5-methylthio-1H-1,2,4-triazole] | 2.99 |
| Sc1nc[nH]n1 [3-Mercapto-1,2,4-triazole] | 1.30 |
| Nc1cnns1 [5-Amino-1,2,3-thiadiazole] | 0.34 |
| Nc1nnn[nH]1 [5-Amino-1H-tetrazole] | 1.29 |
| Nc1ccc2[nH]c(S)nc2c1 [5-Amino-2-mercaptobenzimidazole] | 3.02 |
| Sc1nnnn1-c1ccccc1 [5-Mercapto-1-phenyl-1H-tetrazole] | −4.56 |
| c1ccc(-c2nnn[nH]2)cc1 [5-Phenyl-1H-tetrazole] | −2.88 |
| c1ccc2[nH]cnc2c1 [Benzimidazole] | 5.67 |
